Test results from PubChem BioAssay (NCI).
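Interpolation was linear, between the two tested concentrations surrounding the appropriate level; five concentrations were tested over 48 hours in 96-well plates. The concentration for 50% growth inhibition is given as GI50. The concentration for full growth arrest is given as TGI.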

Columns and labels:
Assay in all cases: NCI-60 cell line screen, 48 h
[1] = system: A549 NSCLC
[2] = system: NCI-H226 lung
[3] = system: MDA-MB-435
[4] = system: COLO 205 colon
[5] = system: PC-3 prostate
[6] = system: ACHN renal
[7] = system: LOX IMVI melanoma
[8] = system: SK-OV-3 ovarian
[9] = system: MALME-3M melanoma
[10] = system: RPMI-8226 leukemia

| SMILES | TGI [1] | TGI [2] | TGI [3] | TGI [4] | TGI [5] | TGI [6] | TGI [7] | TGI [8] | TGI [9] | TGI [10] | GI50 [1] | GI50 [2] | GI50 [3] | GI50 [4] | GI50 [5] | GI50 [6] | GI50 [7] | GI50 [8] | GI50 [9] | GI50 [10] |
| --- | --- | --- | --- | --- | --- | --- | --- | --- | --- | --- | --- | --- | --- | --- | --- | --- | --- | --- | --- | --- |
| CCNC(C)(C)C(SS)c1ccc(Br)cc1 (configuration not stated) | > 100 µM | > 100 µM | > 100 µM | > 100 µM | > 100 µM | > 100 µM | 60.1 µM | > 100 µM | > 100 µM | 76.1 µM |  |  |  |  |  |  |  |  |  |  |
| N#CC(C#N)=Cc1c(-c2ccccc2)[nH]c2ccccc12 | > 100 µM | > 41.4 µM | 0.736 µM | 15 µM | > 70.8 µM | > 55.9 µM | > 47.3 µM | > 80.7 µM | > 100 µM | 4.62 µM | 4.62 µM | 3.84 µM | 0.248 µM | 1.76 µM | 2.9 µM | 7.07 µM | 3.27 µM | 5.57 µM | 15.8 µM | 0.564 µM |
| O=C(/C=C1\C(=O)N(Cc2ccc([N+](=O)[O-])cc2)c2ccccc21)c1ccc(OCCN2CCCCC2)cc1 | 3.28 µM | 21.4 µM | 2.52 µM | 3.27 µM | 3.52 µM | 2.38 µM | 2.78 µM | 11.7 µM | 2.74 µM | 4.13 µM | 1.68 µM | 3.14 µM | 1.2 µM | 1.64 µM | 1.74 µM | 1.16 µM | 1.4 µM | 2.78 µM | 1.22 µM | 1.35 µM |
| COc1cc2c(c(OC)c1OC)C(=O)CC(c1cccc(NC(=O)c3ccc(Br)cc3)c1)O2 (configuration not stated) | > 100 µM | > 100 µM | 4.46 µM | > 100 µM | 8.59 µM | > 100 µM | > 100 µM | > 100 µM | 7.39 µM | 3.93 µM | 3.57 µM | 3 µM | 1.46 µM | 3.17 µM | 2.33 µM | 3.02 µM | 2.41 µM | 4.32 µM | 1.47 µM | 1.44 µM |
| CN(Cc1cnc(N)nc1N)c1ccc(C(=O)O)cc1 | > 100 µM | > 100 µM | > 100 µM | > 100 µM | > 100 µM | > 100 µM | > 100 µM | > 100 µM | > 100 µM | > 100 µM | > 100 µM | > 100 µM | > 100 µM | > 100 µM | > 100 µM | > 100 µM | > 100 µM | > 100 µM | > 100 µM | > 100 µM |
| CC[C@@]1(OC(=O)CN)C(=O)OCc2c1cc1n(c2=O)Cc2cc3cc4c(cc3nc2-1)OCO4 | 0.309 µM | 0.121 µM | 0.838 µM | 1.53 µM | > 100 µM | < 0.01 µM | 0.119 µM | 0.0736 µM | 0.459 µM | 0.582 µM | < 0.01 µM | < 0.01 µM | < 0.0131 µM | 0.127 µM | 0.0275 µM | < 0.01 µM | < 0.01 µM | < 0.01 µM | < 0.01 µM | < 0.0104 µM |
| Cc1cc(N2CCN(C)CC2)nc(NCc2cc(Nc3ccnc4cc(Cl)ccc34)ccc2F)n1 | 5.3 µM | 55.4 µM | 3.9 µM | 2.12 µM | > 100 µM | 3.45 µM | 3.14 µM | 6.27 µM | 3.89 µM | 5.48 µM | 2.34 µM | 7.88 µM | 1.76 µM | 0.71 µM | 3.51 µM | 1.88 µM | 1.67 µM | 2.64 µM | 2.08 µM | 2.2 µM |
| Cc1csc(/C=N/NC(=O)c2nnn(-c3ccnc4c(C(F)(F)F)cccc34)c2C)c1 | > 100 µM | > 100 µM | > 100 µM | > 100 µM | > 100 µM | > 100 µM | > 100 µM | > 100 µM | 92.2 µM | > 100 µM | 36.6 µM | 79 µM | 85.3 µM | 34.2 µM | 41.1 µM | 63.8 µM | 72.2 µM | 28.7 µM | 26.9 µM | 33.7 µM |
| COc1cc2ccccc2c2cc([N+](=O)[O-])oc12 | 22.7 µM | 3.04 µM | 0.733 µM | 2.36 µM | > 100 µM |  | 3.93 µM | > 71.7 µM | 0.418 µM | 14.7 µM |  |  |  |  |  |  |  |  |  |  |
| COc1ccc(C(C#N)NC23CC4CC(CC(C4)C2)C3)cc1OC (configuration not stated) | > 100 µM | > 100 µM | > 100 µM | > 100 µM | > 100 µM | > 100 µM | > 100 µM | > 100 µM | > 100 µM | > 100 µM |  |  |  |  |  |  |  |  |  |  |
| CCCCN(CCCC)c1ccc(C(=N)c2ccc(N(C)C)cc2)cc1 | 1.97 µM | 2.63 µM | 1.33 µM | 1.65 µM | 1.67 µM | 2.38 µM | 2.02 µM | 2.66 µM | 2.23 µM | 0.737 µM | 0.7 µM | 1.2 µM | 0.348 µM | 0.455 µM | 0.409 µM | 1.04 µM | 0.536 µM | 1.36 µM | 0.651 µM | 0.224 µM |
| CC(N=C(N)N)C(=O)O (configuration not stated) | > 100 µM | > 100 µM | > 100 µM | > 100 µM | > 100 µM | > 100 µM | > 100 µM | > 100 µM | > 100 µM | > 100 µM |  |  |  |  |  |  |  |  |  |  |
| CN1CCN(CCCOc2cccc3nc(Nc4ccc(Cl)c(F)c4)ccc23)CC1 | 3.65 µM | 4.14 µM | 3.14 µM | 3.34 µM | 3.41 µM | 3.07 µM | 3.17 µM | 3.44 µM | 4.05 µM | 5.88 µM | 1.96 µM | 2.05 µM | 1.61 µM | 1.7 µM | 1.76 µM | 1.66 µM | 1.64 µM | 1.79 µM | 1.92 µM | 2.55 µM |
| CC1=CC[C@@H]2C(C)(C)C(=O)CC[C@@]2(C)[C@@H]1COc1ccc2ccc(=O)oc2c1 | 71.2 µM | 33.7 µM | 29.9 µM | 39.4 µM | 31.8 µM | 79.9 µM | 48.6 µM | > 100 µM | 38.9 µM |  | 10.9 µM | 8.7 µM | 11.9 µM | 10.6 µM | 5.41 µM | 15.3 µM | 17.6 µM | 31.9 µM | 14.4 µM |  |
